# Starred links: 1 amine or outer side, 2 acyl side, 3 side chain; linkers in the order of their positions; H or OH if unused. Positions of bridges follow the written chain, without caps; N, C: chain ends. Non-standard residues stand in square brackets, D forms with d. Residues, ends and D or L forms follow the SMILES beside them. Chains are numbered I, II in the order given. Actinocin(9to1) = Cc1c2oc3c(C)ccc(C(=O)[*:1])c3nc-2c(C(=O)[*:2])c(N)c1=O; NMeV = CN[C@H](C(=O)O)C(C)C; Sar = CNCC(=O)O
# Tested on: Human Umbilical Vein Endothelial (HUVE) cells
# Test: In vitro tube formation assay on BME
# Assay type: cell-based
# Settings: most marked between 4 and 16 hours after plating
# Procedure: FIG. 7: Interference with Survivin-ΔEx3 inhibits angiogenesis in vitro. Human Umbilical Vein Endothelial (HUVE) cells were transfected with shRNAs of the instant invention or incubated with antibodies against Survivin-ΔEx3 and the results compared to HUVE cells treated with known inducers/inhibitors of in vitro angiogenesis. Treated/transfected cells were plated on growth factor reduced basement membrane extract (BME) to support in vitro tube formation. […] Quantitative data shown in (E) are mean±s.e. of 5 replicates per sample.
# Survivin ΔEx3 activity was disrupted in an in vitro tube formation assay by either downregulating Survivin ΔEx3 mRNA with an shRNA or inhibiting Survivin ΔEx3 protein with an anti-Survivin ΔEx3 antibody. To downregulate transcription, an shRNA targeting the exon2-exon-4 boundary, specific for Survivin ΔEx3 was used. A scrambled shRNA and a cocktail of 3 shRNAs targeting all Survivin isoforms were used as controls (FIG. 7). HUVECs were transfected with shRNA plasmids in combination with a plasmid encoding eGFP. The cells were sterile sorted by FACS to isolate the population of cells that was successfully transfected, based on eGFP fluorescence. […] Tube formation was quantified by counting the number of branches and tube length from 5 representative fields per replicate, in a double-blinded fashion.
structure (smiles),measurement,value
"Cc1c2oc3c(C)ccc(C(=O)N[C@@H]4C(=O)N[C@H](C(C)C)C(=O)N5CCC[C@H]5C(=O)N(C)CC(=O)N(C)[C@@H](C(C)C)C(=O)O[C@@H]4C)c3nc-2c(C(=O)N[C@@H]2C(=O)N[C@H](C(C)C)C(=O)N3CCC[C@H]3C(=O)N(C)CC(=O)N(C)[C@@H](C(C)C)C(=O)O[C@@H]2C)c(N)c1=O [actinomycin-D] (I: T[dV]P[Sar][NMeV] / II: T[dV]P[Sar][NMeV]; ester I:1-I:C, II:1-II:C; linker I:N-II:N via Actinocin(9to1))",tube formation on BME,inhibition of tube formation
